# Assay results from the supplement of paper PMC11208160.
# Assay: recombinant UMI read abundance after kanamycin selection (control-corrected) (log10(CPM+1)); higher = more efficient recombination; extreme values may be limits of the assay; sequences stand for … in AGTGCAGAGAAAATCGGCCAGTTTTCTCTGCCTGCAGTCCGCATGCCGTGGGACCCCTTGGGTTCTAACCTGTTGCCTAGATTTATGCAGCGGACTGCCTTTCTCCCAAAGTGATAAACCGG…AGGTTGGTTTCACT; site = the 11-nt donor
# Method in brief: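 Sequencing read counts were converted to CPM, averaged over two replicates and scaled by control-derived factors. Results are given as log10(CPM+1). The reads covered the donor–target junction of recombinant UMIs from a pooled Escherichia coli screen of donor and donor-binding-loop pairs for the IS621 bridge recombinase.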
# 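Note: IS621 bridge recombinase in Escherichia coli cells against a fixed T5 target plasmid.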
row,Sequence,recombinant UMI read abundance (log10)
1,CGTGGAGCATGGACCGGTTTTCCCGGTAATCCGTATTTGTT (site CGTGGAACTAA),1.66
2,CGTGGAGCATGGACCGGTTTTCCCGGTAATCCGTATTTGTT (site CGTGGACCTAA),0.00893
3,CGTGGAGCATGGACCGGTTTTCCCGGTAATCCGTATTTGTT (site CGTGGAGCTAA),2.02
4,CGTGGAGCATGGACCGGTTTTCCCGGTAATCCGTATTTGTT (site CGTGGATCTAA),1.23
5,CGTGGATCATGGACCGGTTTTCCCGGTAATCCGTATTTGTT (site CGTGGAACTAA),0.0027
6,CGTGGATCATGGACCGGTTTTCCCGGTAATCCGTATTTGTT (site CGTGGACCTAA),0.0255
7,CGTGGATCATGGACCGGTTTTCCCGGTAATCCGTATTTGTT (site CGTGGAGCTAA),0
8,CGTGGATCATGGACCGGTTTTCCCGGTAATCCGTATTTGTT (site CGTGGATCTAA),2.34
9,CGTGGTACATGGACCGGTTTTCCCGGTAATCCGTATTTGTT (site CGTGGAACTAA),0.177
10,CGTGGTACATGGACCGGTTTTCCCGGTAATCCGTATTTGTT (site CGTGGCACTAA),0.0912
11,CGTGGTACATGGACCGGTTTTCCCGGTAATCCGTATTTGTT (site CGTGGGACTAA),0
12,CGTGGTACATGGACCGGTTTTCCCGGTAATCCGTATTTGTT (site CGTGGTACTAA),1.25
13,CGTGTGGCATGGACCGGTTTTCCCGGTAATCCGTATTTGCT (site CGTATGGCTAG),1.01
14,CGTGTGGCATGGACCGGTTTTCCCGGTAATCCGTATTTGCT (site CGTCTGGCTAG),0.00526
15,CGTGTGGCATGGACCGGTTTTCCCGGTAATCCGTATTTGCT (site CGTGTGGCTAG),3.26
16,CGTGTGGCATGGACCGGTTTTCCCGGTAATCCGTATTTGCT (site CGTTTGGCTAG),0
17,CGTGTTGCATGGACCGGTTTTCCCGGTAATCCGTATTTGTC (site CGTGTTGCTGA),2.08
18,CGTTAGGCATGGACCGGTTTTCCCGGTAATCCGTATTTGAG (site CGTTAGACTCT),0.855
19,CGTTAGGCATGGACCGGTTTTCCCGGTAATCCGTATTTGAG (site CGTTAGCCTCT),0.00789
20,CGTTAGGCATGGACCGGTTTTCCCGGTAATCCGTATTTGAG (site CGTTAGGCTCT),1.23
21,CGTTAGGCATGGACCGGTTTTCCCGGTAATCCGTATTTGAG (site CGTTAGTCTCT),0.173
22,CGTTATCCATGGACCGGTTTTCCCGGTAATCCGTATTTGTT (site CGGAATCCTAA),0
23,CGTTATCCATGGACCGGTTTTCCCGGTAATCCGTATTTGTT (site CGTTATCCTAA),0.375
24,CGTTCATCATGGACCGGTTTTCCCGGTAATCCGTATTTGCT (site CGATCATCTAG),0
25,CGTTCATCATGGACCGGTTTTCCCGGTAATCCGTATTTGCT (site CGCTCATCTAG),1.41

row,Sequence,recombinant UMI read abundance (log10)
1,CGTTCATCATGGACCGGTTTTCCCGGTAATCCGTATTTGCT (site CGGTCATCTAG),0
2,CGTTCATCATGGACCGGTTTTCCCGGTAATCCGTATTTGCT (site CGTTCATCTAG),1.35
3,CGTTCCCCATGGACCGGTTTTCCCGGTAATCCGTATTTGTA (site AGTTCCCCTTA),0.00297
4,CGTTCCCCATGGACCGGTTTTCCCGGTAATCCGTATTTGTA (site CGTTCCCCTTA),0.531
5,CGTTCCCCATGGACCGGTTTTCCCGGTAATCCGTATTTGTA (site GGTTCCCCTTA),0.00349
6,CGTTCCCCATGGACCGGTTTTCCCGGTAATCCGTATTTGTA (site TGTTCCCCTTA),0.00473
7,CGTTCGGCATGGACCGGTTTTCCCGGTAATCCGTATTTGCT (site CGTTAGGCTAG),0.00568
8,CGTTCGGCATGGACCGGTTTTCCCGGTAATCCGTATTTGCT (site CGTTCGGCTAG),1.63
9,CGTTCGGCATGGACCGGTTTTCCCGGTAATCCGTATTTGCT (site CGTTGGGCTAG),0.00466
10,CGTTCGGCATGGACCGGTTTTCCCGGTAATCCGTATTTGCT (site CGTTTGGCTAG),0
11,CGTTGCTCATGGACCGGTTTTCCCGGTAATCCGTATTTGAT (site CGTTGCTCTAT),1.8
12,CGTTGTACATGGACCGGTTTTCCCGGTAATCCGTATTTGCT (site CGTTGTACTAG),1.39
13,CGTTTCGCATGGACCGGTTTTCCCGGTAATCCGTATTTGCT (site CGTTTAGCTAG),0
14,CGTTTCGCATGGACCGGTTTTCCCGGTAATCCGTATTTGCT (site CGTTTCGCTAG),0.892
15,CGTTTCGCATGGACCGGTTTTCCCGGTAATCCGTATTTGCT (site CGTTTGGCTAG),0
16,CGTTTCGCATGGACCGGTTTTCCCGGTAATCCGTATTTGCT (site CGTTTTGCTAG),0
17,CGTTTGACATGGACCGGTTTTCCCGGTAATCCGTATTTGAG (site CGTTAGACTCT),0.00643
18,CGTTTGACATGGACCGGTTTTCCCGGTAATCCGTATTTGAG (site CGTTCGACTCT),0
19,CGTTTGACATGGACCGGTTTTCCCGGTAATCCGTATTTGAG (site CGTTGGACTCT),0.0522
20,CGTTTGACATGGACCGGTTTTCCCGGTAATCCGTATTTGAG (site CGTTTGACTCT),1.03
21,CGTTTGGCATGGACCGGTTTTCCCGGTAATCCGTATTTGCA (site CGTTTGGCTAG),0
22,CGTTTGGCATGGACCGGTTTTCCCGGTAATCCGTATTTGCA (site CGTTTGGCTCG),0.024
23,CGTTTGGCATGGACCGGTTTTCCCGGTAATCCGTATTTGCA (site CGTTTGGCTGG),0
24,CGTTTGGCATGGACCGGTTTTCCCGGTAATCCGTATTTGCA (site CGTTTGGCTTG),0.562
25,CTAACAGCATGGACCGGTTTTCCCGGTAATCCGTATTTGTA (site CTAACAGCTTA),2.48

row,Sequence,recombinant UMI read abundance (log10)
1,CTAACATCATGGACCGGTTTTCCCGGTAATCCGTATTTGCT (site CTAACATCTAG),2.12
2,CTAACTGCATGGACCGGTTTTCCCGGTAATCCGTATTTGTC (site CTAACTGCTGA),2.12
3,CTAAGACCATGGACCGGTTTTCCCGGTAATCCGTATTTGCG (site CTAAGACCTCG),0.0114
4,CTACAACCATGGACCGGTTTTCCCGGTAATCCGTATTTGAT (site CTACAACCTAT),0
5,CTACCATCATGGACCGGTTTTCCCGGTAATCCGTATTTGAC (site CTACCATCTGT),2.39
6,CTACCATCATGGACCGGTTTTCCCGGTAATCCGTATTTGAC (site CTAGTATCTGT),0
7,CTACCGCCATGGACCGGTTTTCCCGGTAATCCGTATTTGAC (site CTACCGCCTGT),0.322
8,CTACCGCCATGGACCGGTTTTCCCGGTAATCCGTATTTGCG (site CTACCGCCTCG),0.268
9,CTACGAACATGGACCGGTTTTCCCGGTAATCCGTATTTGGG (site CTACGAACTCC),1.11
10,CTACGCCCATGGACCGGTTTTCCCGGTAATCCGTATTTGTG (site CTACGCCCTCA),0.232
11,CTACGTCCATGGACCGGTTTTCCCGGTAATCCGTATTTGAA (site CTACGTCCTTT),1.23
12,CTACTAACATGGACCGGTTTTCCCGGTAATCCGTATTTGCA (site CTACTAACTTA),1.4
13,CTACTAACATGGACCGGTTTTCCCGGTAATCCGTATTTGCA (site CTACTAACTTC),0.0167
14,CTACTAACATGGACCGGTTTTCCCGGTAATCCGTATTTGCA (site CTACTAACTTG),2.47
15,CTACTAACATGGACCGGTTTTCCCGGTAATCCGTATTTGCA (site CTACTAACTTT),1.47
16,CTACTAACATGGACCGGTTTTCCCGGTAATCCGTATTTGGT (site CTACTAACTAC),0.461
17,CTACTAACATGGACCGGTTTTCCCGGTAATCCGTATTTGGT (site CTACTAACTCC),0.0128
18,CTACTAACATGGACCGGTTTTCCCGGTAATCCGTATTTGGT (site CTACTAACTGC),0
19,CTACTAACATGGACCGGTTTTCCCGGTAATCCGTATTTGGT (site CTACTAACTTC),0.0138
20,CTACTAGCATGGACCGGTTTTCCCGGTAATCCGTATTTGGA (site CTACTAACTTC),1.43
21,CTACTAGCATGGACCGGTTTTCCCGGTAATCCGTATTTGGA (site CTACTACCTTC),0.00939
22,CTACTAGCATGGACCGGTTTTCCCGGTAATCCGTATTTGGA (site CTACTAGCTTC),1.52
23,CTACTAGCATGGACCGGTTTTCCCGGTAATCCGTATTTGGA (site CTACTATCTTC),2.05
24,CTACTGACATGGACCGGTTTTCCCGGTAATCCGTATTTGGA (site CTACTAACTTC),1.76
25,CTACTGACATGGACCGGTTTTCCCGGTAATCCGTATTTGGA (site CTACTCACTTC),0.015
